Measured values published in PubChem BioAssay (NCI).
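Cells were grown in 96-well plates and exposed to each compound for 48 hours at five concentrations; endpoints were interpolated linearly between bracketing concentrations, or set to the highest concentration if not reached. TGI: concentration producing complete growth inhibition.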

Assays:
Assay in all cases: inhibition of tumour cell growth, NCI panel, 48 h
NCI-H522 lung = tested on: NCI-H522 lung
SK-MEL-2 melanoma = tested on: SK-MEL-2 melanoma
HCT-116 colon = tested on: HCT-116 colon
SF-268 CNS = tested on: SF-268 CNS
M14 melanoma = tested on: M14 melanoma
OVCAR-8 ovarian = tested on: OVCAR-8 ovarian
OVCAR-4 ovarian = tested on: OVCAR-4 ovarian
SF-295 CNS = tested on: SF-295 CNS
SF-539 CNS = tested on: SF-539 CNS
DU-145 prostate = tested on: DU-145 prostate
MCF7 breast = tested on: MCF7 breast
BT-549 breast = tested on: BT-549 breast
MDA-MB-231 breast = tested on: MDA-MB-231 breast
HCT-15 colon = tested on: HCT-15 colon
HT29 colon = tested on: HT29 colon
COLO 205 colon = tested on: COLO 205 colon
A549 NSCLC = tested on: A549 NSCLC
HL-60(TB) leukemia = tested on: HL-60(TB) leukemia
HCC-2998 colon = tested on: HCC-2998 colon
NCI/ADR-RES ovarian = tested on: NCI/ADR-RES ovarian
UACC-62 melanoma = tested on: UACC-62 melanoma
T-47D breast = tested on: T-47D breast
IGROV1 ovarian = tested on: IGROV1 ovarian
UACC-257 melanoma = tested on: UACC-257 melanoma
SW-620 colon = tested on: SW-620 colon
SK-OV-3 ovarian = tested on: SK-OV-3 ovarian
A498 renal = tested on: A498 renal
MALME-3M melanoma = tested on: MALME-3M melanoma
TK-10 renal = tested on: TK-10 renal
HOP-62 NSCLC = tested on: HOP-62 NSCLC
K-562 leukemia = tested on: K-562 leukemia
RPMI-8226 leukemia = tested on: RPMI-8226 leukemia
HOP-92 NSCLC = tested on: HOP-92 NSCLC
SN12C renal = tested on: SN12C renal
SNB-75 CNS = tested on: SNB-75 CNS
UO-31 renal = tested on: UO-31 renal
MOLT-4 leukemia = tested on: MOLT-4 leukemia
NCI-H226 lung = tested on: NCI-H226 lung
ACHN renal = tested on: ACHN renal
MDA-MB-435 = tested on: MDA-MB-435
SK-MEL-28 melanoma = tested on: SK-MEL-28 melanoma
OVCAR-3 ovarian = tested on: OVCAR-3 ovarian
SK-MEL-5 melanoma = tested on: SK-MEL-5 melanoma
EKVX NSCLC = tested on: EKVX NSCLC
KM12 colon = tested on: KM12 colon
NCI-H460 lung = tested on: NCI-H460 lung
RXF 393 renal = tested on: RXF 393 renal
LOX IMVI melanoma = tested on: LOX IMVI melanoma
PC-3 prostate = tested on: PC-3 prostate
HS 578T breast = tested on: HS 578T breast
MDA-N = tested on: MDA-N
SNB-19 CNS = tested on: SNB-19 CNS
786-0 renal = tested on: 786-0 renal
CAKI-1 renal = tested on: CAKI-1 renal
U251 CNS = tested on: U251 CNS
SR leukemia = tested on: SR leukemia
OVCAR-5 ovarian = tested on: OVCAR-5 ovarian
NCI-H23 lung = tested on: NCI-H23 lung
CCRF-CEM leukemia = tested on: CCRF-CEM leukemia

Which results are given for `FC(F)(F)c1ccc2c(c1)nc(-c1ccccc1)n2CC1CCCN2CCCCC12` (stereo not drawn)?
TGI (NCI-H522 lung): 28.7 µM; TGI (SK-MEL-2 melanoma): 29.3 µM; TGI (HCT-116 colon): 30.6 µM; TGI (SF-268 CNS): 33.5 µM; TGI (M14 melanoma): 31.9 µM; TGI (OVCAR-8 ovarian): 37.9 µM; TGI (OVCAR-4 ovarian): > 100 µM; TGI (SF-295 CNS): 31.7 µM; TGI (SF-539 CNS): 31 µM; TGI (DU-145 prostate): > 100 µM; TGI (MCF7 breast): 38.8 µM; TGI (BT-549 breast): 34.9 µM; TGI (MDA-MB-231 breast): 29.4 µM; TGI (HCT-15 colon): 64 µM; TGI (HT29 colon): 38.5 µM; TGI (COLO 205 colon): 26.3 µM; TGI (A549 NSCLC): > 100 µM; TGI (HL-60(TB) leukemia): 33.8 µM; TGI (HCC-2998 colon): 32.3 µM; TGI (NCI/ADR-RES ovarian): 34.3 µM; TGI (UACC-62 melanoma): 31.2 µM; TGI (T-47D breast): 71.7 µM; TGI (IGROV1 ovarian): 50.4 µM; TGI (UACC-257 melanoma): 31.8 µM; TGI (SW-620 colon): 69.9 µM; TGI (SK-OV-3 ovarian): 37.3 µM; TGI (A498 renal): 69.1 µM; TGI (MALME-3M melanoma): 27.2 µM; TGI (TK-10 renal): 41.8 µM; TGI (HOP-62 NSCLC): > 100 µM; TGI (K-562 leukemia): 58.3 µM; TGI (RPMI-8226 leukemia): > 100 µM; TGI (HOP-92 NSCLC): 65.8 µM; TGI (SN12C renal): 45.5 µM; TGI (SNB-75 CNS): 50.8 µM; TGI (UO-31 renal): 1.16 µM; TGI (MOLT-4 leukemia): > 100 µM; TGI (NCI-H226 lung): 65.9 µM; TGI (ACHN renal): 56.5 µM; TGI (MDA-MB-435): 42.3 µM; TGI (SK-MEL-28 melanoma): 35.3 µM; TGI (OVCAR-3 ovarian): 40.1 µM; TGI (SK-MEL-5 melanoma): 28.1 µM; TGI (EKVX NSCLC): > 100 µM; TGI (KM12 colon): 66.5 µM; TGI (NCI-H460 lung): 39.3 µM; TGI (RXF 393 renal): 75.5 µM; TGI (LOX IMVI melanoma): 29.1 µM; TGI (PC-3 prostate): 34.1 µM; TGI (HS 578T breast): 33.9 µM; TGI (MDA-N): 36.2 µM; TGI (SNB-19 CNS): > 100 µM; TGI (786-0 renal): 30.7 µM; TGI (CAKI-1 renal): > 100 µM; TGI (U251 CNS): 56.2 µM; TGI (SR leukemia): 49.2 µM

With `CCCCCCCCCCCCCCCCOCC(Cl)CP(=O)(O)OP(=O)(O)OCC1OC(n2cnc3c(N)ncnc32)C(O)C1O` (stereo not drawn) as the compound, how does the TGI (NCI-H522 lung) read?
The TGI was > 100 µM.

And the TGI (SK-MEL-2 melanoma)?
The TGI was > 100 µM.

What about the TGI (HCT-116 colon) of the same compound?
The TGI was > 100 µM.

And the TGI (SF-268 CNS)?
The TGI was > 100 µM.

What about the TGI (M14 melanoma) of the same compound?
Its TGI is > 100 µM.

What about the TGI (OVCAR-8 ovarian) of the same compound?
The TGI was > 100 µM.

And the TGI (OVCAR-4 ovarian)?
Its TGI is > 100 µM.

And the TGI (SF-539 CNS)?
Its TGI is > 100 µM.

And the TGI (DU-145 prostate)?
Its TGI is > 100 µM.

What about the TGI (MCF7 breast) of the same compound?
Its TGI is > 100 µM.

And the TGI (BT-549 breast)?
Its TGI is > 100 µM.

And the TGI (MDA-MB-231 breast)?
Its TGI is > 100 µM.

And the TGI (HCT-15 colon)?
The TGI was > 100 µM.

What about the TGI (HT29 colon) of the same compound?
Its TGI is > 100 µM.

What about the TGI (COLO 205 colon) of the same compound?
The TGI was > 100 µM.

What about the TGI (A549 NSCLC) of the same compound?
The TGI was > 100 µM.

What about the TGI (HL-60(TB) leukemia) of the same compound?
The TGI was > 100 µM.

What about the TGI (HCC-2998 colon) of the same compound?
Its TGI is > 100 µM.

And the TGI (NCI/ADR-RES ovarian)?
The TGI was > 100 µM.

And the TGI (UACC-62 melanoma)?
Its TGI is > 100 µM.

What about the TGI (T-47D breast) of the same compound?
The TGI was > 100 µM.

What about the TGI (IGROV1 ovarian) of the same compound?
Its TGI is > 100 µM.

And the TGI (UACC-257 melanoma)?
The TGI was > 100 µM.

What about the TGI (SW-620 colon) of the same compound?
The TGI was > 100 µM.

And the TGI (SK-OV-3 ovarian)?
The TGI was > 100 µM.

And the TGI (A498 renal)?
The TGI was > 100 µM.

What about the TGI (MALME-3M melanoma) of the same compound?
The TGI was > 100 µM.

And the TGI (OVCAR-5 ovarian)?
Its TGI is > 100 µM.

And the TGI (TK-10 renal)?
The TGI was > 100 µM.

What about the TGI (HOP-62 NSCLC) of the same compound?
The TGI was > 100 µM.

And the TGI (K-562 leukemia)?
The TGI was > 100 µM.

What about the TGI (HOP-92 NSCLC) of the same compound?
The TGI was > 100 µM.

What about the TGI (SN12C renal) of the same compound?
Its TGI is > 100 µM.

And the TGI (SNB-75 CNS)?
The TGI was > 100 µM.

What about the TGI (NCI-H23 lung) of the same compound?
Its TGI is > 100 µM.

And the TGI (UO-31 renal)?
Its TGI is > 100 µM.

What about the TGI (MOLT-4 leukemia) of the same compound?
The TGI was > 100 µM.

And the TGI (CCRF-CEM leukemia)?
Its TGI is > 100 µM.

What about the TGI (NCI-H226 lung) of the same compound?
The TGI was > 100 µM.

And the TGI (ACHN renal)?
Its TGI is > 100 µM.

And the TGI (MDA-MB-435)?
Its TGI is > 100 µM.

What about the TGI (SK-MEL-28 melanoma) of the same compound?
Its TGI is > 100 µM.

And the TGI (OVCAR-3 ovarian)?
Its TGI is > 100 µM.

And the TGI (SK-MEL-5 melanoma)?
The TGI was > 100 µM.

And the TGI (EKVX NSCLC)?
Its TGI is > 100 µM.

What about the TGI (KM12 colon) of the same compound?
The TGI was > 100 µM.

What about the TGI (NCI-H460 lung) of the same compound?
Its TGI is > 100 µM.

And the TGI (RXF 393 renal)?
Its TGI is > 100 µM.

What about the TGI (LOX IMVI melanoma) of the same compound?
The TGI was > 100 µM.

What about the TGI (PC-3 prostate) of the same compound?
The TGI was > 100 µM.

And the TGI (HS 578T breast)?
The TGI was > 100 µM.

What about the TGI (MDA-N) of the same compound?
The TGI was > 100 µM.

And the TGI (SNB-19 CNS)?
Its TGI is > 100 µM.

And the TGI (786-0 renal)?
Its TGI is > 100 µM.

And the TGI (CAKI-1 renal)?
The TGI was > 100 µM.

What about the TGI (U251 CNS) of the same compound?
The TGI was > 100 µM.

And the TGI (SR leukemia)?
Its TGI is > 100 µM.
